Assay results taken from US20250163052A1, “cGAS INHIBITORS AND USES THEREOF” (Cornell University, priority 2022, published 2025).

Legend:
P301S mice [1] = assay: Novel object recognition test in P301S mice fed TDI-6570 diet; assay type: in vivo, mouse; conditions: 150 mg/kg diet for three months
Text: (§1) P301S transgenic mice (https://www.jax.org/strain/008169) were crossed with cGas knockout mice (https://www.jax.org/strain/026554) to generate littermate P301S cGas+/+ mice, P301S cGas+/− and littermate P301S cGas−/− mice, as well as non-transgenic littermates. Mice of both sexes were used behavioral, histological and biochemical analyses. Mice underwent behavioral testing at 7 to 8 months of age and had not been used for any other experiments. At 9 to 10 months of age, the same mice were used for pathology and RNA-seq studies. For TDI-6570 in vivo treatment, P301S and non-transgenic littermate mice at 6-7 months were used for diet experiments and were assayed for behavior and histology at 9-10 months. Mice were housed under specific pathogen-free conditions under a 12 h light-dark cycle and all mouse protocols were approved by the Institutional Animal Care and Use Committee, University of California, San Francisco.
For experiments involving TDI-6570 treatment, male P301S and Non-transgenic littermates fed with TDI-6570 or control diet were used.
Mice were habituated to opaque open field arenas (40×40 cm) for two 10-minute trials spaced on the two days leading up to object recognition. […] An experimenter blind to the groups manually scored the time mice spent exploring each object. Preference was calculated based on the total time an individual mouse spent exploring both objects. […]

P301S mice [2] = assay: Immunofluorescent staining of hippocampal synapses (PSD-95, vGAT) in P301S mice; assay type: in vivo, mouse; conditions: hippocampal CA1, 150 mg/kg diet for three months
Text: as §1
Hemibrains from transcardially perfused mice were placed in 4% paraformaldehyde for 48 h, followed by 30% sucrose PBS for 48 h at 4° C. Sections were cut coronally at 40 μm using a freezing microtome (Leica) and placed in cryoprotective medium at −20° C. until use. 8-10 free floating sections per mouse. […] Quantification was done using ImageJ software (NIH) using percentage area based on thresholding determined using negative and positive controls. […]

Cn1c2c(c3ccc(Cl)c(F)c31)CN(C(=O)CO)CC2 [TDI-6570, reference compound]
rescued: Defect in recognizing the novel object (novel object recognition test) (P301S mice [1]) | P301S-dependent excitatory synapse loss (PSD-95) (P301S mice [2]) | P301S-dependent inhibitory synapse loss (vGAT) (P301S mice [2])
